Results reported in ChEMBL document CHEMBL6182909 (J Med Chem, 2025).

Assays:
[1] = Drug concentration in brain of fasted male Sprague-Dawley rat assessed as inhibition of food intake at 10 mg/kg, po measured after 1 hr relative to control; format: organism-based; settings: read-out: Ct
Rattus norvegicus [2] = assay: Hypophagic effect in fasted male Sprague-Dawley rat assessed as effective dose administered orally measured after 1 hr relative to control; format: functional; settings: route po
[3] = Drug concentration in plasma of fasted male Sprague-Dawley rat assessed as inhibition of food intake at 10 mg/kg, po measured after 1 hr relative to control; format: organism-based
Rattus norvegicus [4] = assay: Hypophagic effect in fasted male Sprague-Dawley rat assessed as inhibition of food intake at 10 mg/kg, po measured after 1 hr relative to control; format: functional; settings: for inhibition (INH): 10 mg/kg; for inhibition in vivo at 10 mg/kg: Rattus norvegicus, Sprague-Dawley, po
[5] = biological target: T1, 5-hydroxytryptamine receptor 2C (Homo sapiens, UniProt P28335)
T1 sequence (P28335 whole entry): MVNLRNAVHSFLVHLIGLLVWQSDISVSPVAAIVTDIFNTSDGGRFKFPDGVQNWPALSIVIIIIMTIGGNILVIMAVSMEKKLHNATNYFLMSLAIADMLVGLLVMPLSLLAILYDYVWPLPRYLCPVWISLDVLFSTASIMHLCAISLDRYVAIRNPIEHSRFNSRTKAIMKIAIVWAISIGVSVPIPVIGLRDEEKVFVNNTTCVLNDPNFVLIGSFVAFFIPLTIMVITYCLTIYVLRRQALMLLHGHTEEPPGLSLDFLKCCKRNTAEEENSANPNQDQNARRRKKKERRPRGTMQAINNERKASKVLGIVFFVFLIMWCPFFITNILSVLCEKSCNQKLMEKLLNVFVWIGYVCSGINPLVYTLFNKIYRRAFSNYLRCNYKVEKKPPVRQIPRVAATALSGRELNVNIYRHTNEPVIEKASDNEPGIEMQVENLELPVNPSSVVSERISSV

[6] = biological target: T1, 5-hydroxytryptamine receptor 2C; remark: listed apart in the source
[7] = biological target: T2, 5-hydroxytryptamine receptor 2A (Homo sapiens, UniProt P28223); assay: Displacement of [125I]-DOI from 5-HT2A receptor (unknown origin) expressed in HEK293 cell membrane assessed as inhibition constant incubated for 1 hr by scintillation counter analysis; format: cell membranes
T2 sequence (P28223 whole entry): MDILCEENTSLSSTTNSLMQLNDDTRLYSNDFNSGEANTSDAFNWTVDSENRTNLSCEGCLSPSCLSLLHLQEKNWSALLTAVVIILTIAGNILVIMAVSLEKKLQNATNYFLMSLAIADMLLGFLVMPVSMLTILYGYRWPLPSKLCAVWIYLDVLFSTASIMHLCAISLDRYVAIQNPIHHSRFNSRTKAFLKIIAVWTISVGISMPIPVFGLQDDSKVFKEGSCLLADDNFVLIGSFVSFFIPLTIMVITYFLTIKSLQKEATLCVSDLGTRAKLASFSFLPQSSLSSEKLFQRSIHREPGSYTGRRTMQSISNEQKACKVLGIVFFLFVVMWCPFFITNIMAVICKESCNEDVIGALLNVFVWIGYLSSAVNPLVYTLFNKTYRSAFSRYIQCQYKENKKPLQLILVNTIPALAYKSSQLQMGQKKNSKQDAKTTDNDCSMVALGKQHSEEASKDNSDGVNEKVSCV

[8] = biological target: T3, 5-hydroxytryptamine receptor 2B (Homo sapiens, UniProt P41595); assay: Displacement of [125I]-DOI from 5-HT2B receptor (unknown origin) expressed in HEK293 cell membrane incubated for 1 hr by scintillation counter analysis; format: cell membranes
T3 sequence (P41595 whole entry): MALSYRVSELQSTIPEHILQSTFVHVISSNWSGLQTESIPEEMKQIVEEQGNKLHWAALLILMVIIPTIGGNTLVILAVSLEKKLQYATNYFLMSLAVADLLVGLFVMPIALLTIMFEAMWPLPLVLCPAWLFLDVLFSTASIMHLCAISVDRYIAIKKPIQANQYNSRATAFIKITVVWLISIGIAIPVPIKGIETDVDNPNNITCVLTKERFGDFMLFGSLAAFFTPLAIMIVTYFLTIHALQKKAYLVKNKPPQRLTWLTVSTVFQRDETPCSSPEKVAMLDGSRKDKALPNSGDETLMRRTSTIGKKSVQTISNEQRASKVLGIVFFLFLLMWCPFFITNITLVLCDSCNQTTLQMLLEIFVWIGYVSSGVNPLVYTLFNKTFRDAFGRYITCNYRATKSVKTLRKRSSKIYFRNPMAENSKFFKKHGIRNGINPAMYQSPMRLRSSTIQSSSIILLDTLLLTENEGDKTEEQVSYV

[9] = biological target: T2, 5-hydroxytryptamine receptor 2A; assay: Displacement of [125I]-DOI from 5-HT2A receptor (unknown origin) expressed in HEK293 cell membrane incubated for 1 hr by scintillation counter analysis; format: cell membranes
[10] = biological target: T3, 5-hydroxytryptamine receptor 2B; assay: Displacement of [125I]-DOI from 5-HT2B receptor (unknown origin) expressed in HEK293 cell membrane assessed as inhibition constant incubated for 1 hr by scintillation counter analysis; format: cell membranes
Rattus norvegicus [11] = species on record: Rattus norvegicus; assay: animal or person; settings: Sprague-Dawley, po, 1 h, read-out: INH
Rattus norvegicus [12] = species on record: Rattus norvegicus; assay: animal or person; settings: Sprague-Dawley, 1 h, read-out: INH
Rattus norvegicus [13] = assay: Hypophagic effect in fasted male Sprague-Dawley rat assessed as inhibition of food intake at 5 mg/kg, po measured after 1 hr relative to control; format: functional

SMILES	Ki [5]	EC50 [6]	Ki [7]	EC50 [8]	EC50 [9]	Ki [10]	also measured
CCC1CN2CCNCc3ccc(C(=O)NC)c1c32 (single isomer, unassigned; (+))	–	–	–	–	–	–	concentration at 1 h [1]: 222 ng/g; ED50 (Rattus norvegicus [2]): 6.4 mg/kg; concentration at 1 h [3]: 1010 ng/mL; inhibition (INH) (Rattus norvegicus [4]): 63%
CCNC(=O)c1ccc2c3c1CCN3CCNC2	210 nM	252 nM	> 30000 nM	> 50000 nM	> 50000 nM	8160 nM	–
O=C(NCC(F)F)c1ccc2c3c1C(CC(F)(F)F)CN3CCNC2 (racemic)	25 nM	14 nM	2680 nM	–	–	> 50000 nM	–
CCNC(=O)c1ccc2c3c1C(CC(F)(F)F)CN3CCNC2 (racemic)	72 nM	45 nM	1620 nM	–	–	12400 nM	–
CS(=O)(=O)CCNC(=O)c1ccc2c3c1CCN3CCNC2	12600 nM	> 50000 nM	> 30000 nM	> 50000 nM	> 50000 nM	> 50000 nM	–
O=C(NC1CC1)c1ccc2c3c1CCN3CCNC2	380 nM	400 nM	21800 nM	> 50000 nM	> 50000 nM	9650 nM	–
CN(C)C(=O)c1ccc2c3c1CCN3CCNC2	–	> 30000 nM	–	> 50000 nM	> 50000 nM	–	–
CCCCNC(=O)c1ccc2c3c1CCN3CCNC2	160 nM	91 nM	> 30000 nM	> 50000 nM	> 50000 nM	11800 nM	–
NC(=O)c1ccc2c3c1CCN3CCNC2	500 nM	2700 nM	–	> 50000 nM	> 50000 nM	–	–
O=C(NCC(F)F)c1ccc2c3c1CCN3CCNC2	–	400 nM	–	> 50000 nM	> 50000 nM	–	–
COCCNC(=O)c1ccc2c3c1CCN3CCNC2	–	–	–	–	–	–	inhibition in vivo at 20 mg/kg (Rattus norvegicus [11]): 25%; inhibition in vivo at 10 mg/kg (Rattus norvegicus [12]): 7%; inhibition in vivo at 10 mg/kg (Rattus norvegicus [4]): 9%
CCC1CN2CCNCc3ccc(C(=O)NC)c1c32 (single isomer, unassigned; (-))	–	–	–	–	–	–	inhibition (INH) (Rattus norvegicus [4]): 0%
COCCNC(=O)c1ccc2c3c1C(CC(F)(F)F)CN3CCNC2 (racemic)	38 nM	17 nM	217 nM	–	–	> 50000 nM	–
CNC(=O)c1ccc2c3c1C(CC(F)(F)F)CN3CCNC2 (single isomer, unassigned; (-))	–	–	–	–	–	–	inhibition (INH) (Rattus norvegicus [4]): 0%
CNC(=O)c1ccc2c3c1CCCN3CCNC2	–	5600 nM	–	> 50000 nM	> 50000 nM	–	–
CCOCCNC(=O)c1ccc2c3c1CCCN3CCNC2	232 nM	193 nM	> 50000 nM	> 50000 nM	> 50000 nM	> 50000 nM	–
CCOCCNC(=O)c1ccc2c3c1CCN3CCNC2	43 nM	33 nM	6070 nM	> 50000 nM	> 50000 nM	15500 nM	inhibition in vivo at 10 mg/kg (Rattus norvegicus [4]): 26%
COCC(C)NC(=O)c1ccc2c3c1CCN3CCNC2 (stereo not given)	3070 nM	7400 nM	> 30000 nM	> 50000 nM	> 50000 nM	> 50000 nM	–

SMILES	Ki [5]	EC50 [6]	Ki [7]	EC50 [8]	EC50 [9]	Ki [10]	also measured
COC(C)CNC(=O)c1ccc2c3c1CCN3CCNC2 (stereo not given)	348 nM	820 nM	830 nM	> 50000 nM	> 50000 nM	7730 nM	–
CCCOCCNC(=O)c1ccc2c3c1CCN3CCNC2	19 nM	15 nM	506 nM	> 50000 nM	> 50000 nM	2510 nM	–
CSCCNC(=O)c1ccc2c3c1CCN3CCNC2	84 nM	59 nM	> 30000 nM	> 50000 nM	> 50000 nM	> 50000 nM	–
CCSCCNC(=O)c1ccc2c3c1CCN3CCNC2	29 nM	15 nM	17800 nM	> 50000 nM	> 50000 nM	> 50000 nM	–
COCCNC(=O)c1ccc2c3c1CCCN3CCNC2	–	332 nM	–	> 50000 nM	> 50000 nM	–	–
CCCNC(=O)c1ccc2c3c1C(CC(F)(F)F)CN3CCNC2 (single isomer, unassigned; (+))	–	–	–	–	–	–	inhibition in vivo at 10 mg/kg (Rattus norvegicus [4]): 53%
O=C(NCC1CC1)c1ccc2c3c1CCN3CCNC2	320 nM	360 nM	17800 nM	> 50000 nM	> 50000 nM	17800 nM	–
CNC(=O)c1ccc2c3c1C(CC(F)F)CN3CCNC2 (racemic)	30 nM	23 nM	3780 nM	–	–	804 nM	–
CCC1CN2CCNCc3ccc(C(=O)NCCF)c1c32 (racemic)	121 nM	80 nM	212 nM	–	–	> 50000 nM	–
O=C(NCCF)c1ccc2c3c1CCN3CCNC2	249 nM	430 nM	> 30000 nM	> 50000 nM	> 50000 nM	> 50000 nM	–
CC(C)OCCNC(=O)c1ccc2c3c1CCN3CCNC2	75 nM	57 nM	> 30000 nM	> 50000 nM	> 50000 nM	> 50000 nM	–
O=C(NCC(F)(F)F)c1ccc2c3c1CCN3CCNC2	–	> 50000 nM	–	> 50000 nM	> 50000 nM	–	–
CNC(=O)c1ccc2c3c1C(CC(F)(F)F)CN3CCNC2 (single isomer, unassigned; (+))	–	–	–	–	–	–	concentration at 1 h [1]: 440 ng/g; ED50 (Rattus norvegicus [2]): 5.2 mg/kg; concentration at 1 h [3]: 1660 ng/mL; inhibition (INH) (Rattus norvegicus [4]): 83%; inhibition in vivo at 5 mg/kg (Rattus norvegicus [13]): 41%
O=C(NCCOc1ccccc1)c1ccc2c3c1CCN3CCNC2	18 nM	21 nM	2630 nM	> 50000 nM	> 50000 nM	1670 nM	–
O=C(NCC(F)(F)F)c1ccc2c3c1C(CC(F)(F)F)CN3CCNC2 (racemic)	91 nM	178 nM	7330 nM	–	–	5150 nM	–
CCC1CN2CCNCc3ccc(C(=O)NCC(F)F)c1c32 (single isomer, unassigned; (+))	–	–	–	–	–	–	concentration at 1 h [1]: 454 ng/g; ED50 (Rattus norvegicus [2]): > 5 mg/kg; concentration at 1 h [3]: 866 ng/mL; inhibition in vivo at 5 mg/kg (Rattus norvegicus [13]): 27%
O=C(NCCCl)c1ccc2c3c1CCN3CCNC2	61 nM	33 nM	18900 nM	> 50000 nM	> 50000 nM	2490 nM	–
CC(C)NC(=O)c1ccc2c3c1CCN3CCNC2	1150 nM	3920 nM	> 30000 nM	> 50000 nM	> 50000 nM	8760 nM	–
